Literature values, collected in patent US10034846B2, “Famciclovir and celecoxib combination therapy for functional somatic syndromes” (INNOVATIVE MED CONCEPTS, LLC, priority 2012, dated 2018).

System: fibromyalgia patients
Conditions: Kendall et al., J. Rheumatology (2004) 31, 783-784

SMILES: CC(C)[C@H](N)C(=O)OCCOCn1cnc2c(=O)[nH]c(N)nc21 [valacyclovir]
- Treatment of fibromyalgia patients: not successful
